The record followed here is patent US12648945B2, “Compositions and methods for treating systemic lupus erythematosus” (ASCENTAGE PHARMA (SUZHOU) CO., LTD., priority 2020, dated 2026).

For assay [1], the system named is MRL/lpr mice. In words: Urine protein (Coomassie Brilliant Blue assay) in MRL/lpr mouse model of SLE. In kind it is in vivo. As to conditions: week 18. An excerpt: (§1) Female MRL/MpJ-Fas lpr/J mice (18-20 g, 7-8 weeks old) were obtained from The Jackson Laboratory. These mice are homozygous for the lymphoproliferation spontaneous mutation (Fas^lpr), and show systemic autoimmunity, massive lymphadenopathy associated with proliferation of aberrant T cells, arthritis, and immune complex glomerulonephrosis. Thus, these mice are useful as a model in the study of systemic lupus erythematosus (SLE).
(§2) Animals were housed and handled in a temperature-controlled environment with a 12-h light/12-h dark cycle. […] The protocols and procedures involving the care and use of animals were approved by the Institutional Animal Care and Use Committee (IACUC) of WuXiAppTec (Shanghai) Co., Ltd. (Shanghai, China).
Urine protein was individually evaluated in each mouse on a biweekly basis using Coomassie Brilliant Blue (CBB) assay with a urine protein test kit (Nanjing Jiancheng Biotechnology Institute, Jiangsu, China).

For assay [2], the system named is MRL/lpr mice. As to the kind of experiment: Serum anti-dsDNA autoantibody ELISA in MRL/lpr mouse model of SLE. As to conditions: end of study. In kind it is in vivo.
Text: as §1, §2
Anti-dsDNA autoantibody levels were measured by ELISA. Briefly, a 96-well flat plate was coated with 10 μg/mL calf thymus ds-DNA (Sigma-Aldrich, MA, USA) at 4° C. overnight. After washing with PBS containing 0.05% Tween 20 (PBS-T) and blocking with 1% bovine serum albumin, serum samples (4000× dilution) were added and incubated for 1 h at room temperature. […] Lastly, ultra TMB-ELISA substrate solution (Pierce Biotechnology, IL, USA) was added and incubated for another 30 min, and the OD values at […] were recorded after the reaction was stopped.

Assay [3] deals with MRL/lpr mice. In words: Skin lesion score in MRL/lpr mouse model of SLE. As to conditions: week 18, p<0.0001 vs vehicle. In kind it is in vivo.
Text: as §1, §2
Skin lesions were scored every week starting from week 12 and were expressed using a scoring system from 0 to 4 (0—normal; 1—small lesion with diameter between 2 to 4 mm; 2—lesion area
<0.5 cm^2; 3—lesion area between 0.5 cm^2 to 1 cm^2; 4—lesion area >1 cm^2).

Assay [4] deals with MRL/lpr mice. As to the kind of experiment: Lymph node (lymphadenopathy) score in MRL/lpr mouse model of SLE. In kind it is in vivo. As to conditions: week 18, p<0.0001 vs vehicle.
Text: as §1, §2
Lymph nodes were scored weekly throughout the study, and were expressed using a scoring system from 0 to 6 based on the diameter of lymph nodes (0—normal; 1—<1 cm in one site; 2—<1 cm in two sites; 3—<1 cm in three sites; 4—>1 cm in one site and <1 cm in two sites); 5—>1 cm in two sites and <1 cm in one site; 6—>1 cm in three sites).

The test system of assay [5] is MRL/lpr mice. As to the kind of experiment: Kidney histopathological scores of lupus nephritis in MRL/lpr mouse model of SLE. In kind it is in vivo. As to conditions: week 18.
Text: as §1, §2
At the end of the study, the spleen and lymph nodes were collected and weighed. […] The histopathological score was evaluated microscopically in a blinded manner, vide infra.
The histopathological score was evaluated microscopically in a blinded manner. The […] glomerulonephritis score (GN score) was evaluated using scoring from 0 to 4 (0—normal; 1—mild, focal or early proliferation; 2—moderate or definite proliferation and increased matrix; 3—diffuse and focal or diffuse proliferation; 4—severe diffuse proliferation with crescent/sclerosis). […]

In assay [6] the test system is MRL/lpr mice. As to the kind of experiment: Flow cytometry lymphocyte counts in PBMC, spleen and kidney of MRL/lpr mice. In kind it is in vivo, mouse. As to conditions: 100 mg/kg po qd.
Text: as §1, §2
The spleens and kidneys were harvested from the mice at the conclusion of the study (week 18) and digested into single-cell suspensions. Peripheral blood mononuclear cell (PBMC) were obtained after lysing red blood cells in the whole blood. Cells were stained with the following florescence-labelled antibodies: PerCP-Cyanine5.5-conjugated anti-mouse CD8a (BD Biosciences), AF700-conjugated anti-mouse CD3 (BD Biosciences), PE-eFluor610-conjugated anti-mouse B220 (BD Biosciences), e506-conjugated anti-mouse CD45 (BD Biosciences), BV605-conjugated anti-mouse CD138 (BioLegend), and BV711-conjugated anti-mouse CD4 (BioLegend).
All cells were primarily gated on live lymphocytes based on forward scatter (FCS) and side scatter (SSC). Samples were analyzed on a flow cytometer (BD FACSCalibur, USA) to count the number of each subtype of lymphocytes.
Of note, the reduction of double negative T cells were most significant compared to other lymphocytes. […] Without being bound by theory, the reduced infiltration by pro-inflammatory CD4+ cells and double-negative T cells may be responsible in part for the observed efficacy in treating lupus nephritis.
Background: Flow cytometry measures light scatter and fluorescence of single cells or particles in a stream.

Another assay concerns the target Mcl-1 (Homo sapiens, UniProt Q07820). In words: FP saturation binding of fluorescent probe to Mcl-1. As to conditions: 2 nM probe. An excerpt: Bcl-XL, and Mcl-1, respectively.
Where [7] appears, read: 30 mg/kg po qd, p<0.05 vs vehicle.
[8] abbreviates: 100 mg/kg po qd, p<0.0001 vs vehicle.

Sequence of Mcl-1 (Q07820 whole entry): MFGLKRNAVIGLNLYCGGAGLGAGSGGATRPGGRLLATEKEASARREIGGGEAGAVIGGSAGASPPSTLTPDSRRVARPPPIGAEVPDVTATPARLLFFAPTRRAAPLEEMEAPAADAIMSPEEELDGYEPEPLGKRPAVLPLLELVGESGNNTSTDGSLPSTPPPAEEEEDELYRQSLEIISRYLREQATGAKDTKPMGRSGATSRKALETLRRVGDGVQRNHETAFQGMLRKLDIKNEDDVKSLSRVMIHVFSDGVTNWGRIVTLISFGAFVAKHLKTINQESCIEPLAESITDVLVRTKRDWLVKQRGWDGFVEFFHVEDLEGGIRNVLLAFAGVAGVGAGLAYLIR

On to `O=C(NS(=O)(=O)c1ccc(NC[C@H]2COCCO2)c([N+](=O)[O-])c1)c1ccc(N2CCN(CC3=C(c4ccc(Cl)cc4)CC4(CCC4)CC3)CC2)cc1Oc1cnc2[nH]ccc2c1` [Compound 1, (S)-N-((4-(((1,4-dioxan-2-yl)methyl)amino)-3-nitrophenyl)sulfonyl)-2-((1H-pyrrolo[2,3-b]pyridin-5-yl)oxy)-4-(4-((6-(4-chlorophenyl)spiro[3.5]non-6-en-7-yl)methyl)piperazin-1-yl)benzamide], for which the urine protein level with MRL/lpr mice [1] (setting [7]) amounted to 536.1 ± 146.8 mg/L; in the assay with MRL/lpr mice [1] (setting [8]) it was 266.8 ± 37.7 mg/L. In addition, the results for the “serum anti-dsDNA autoantibody level, % of the vehicle group” value in the assay on MRL/lpr mice [2] (setting [7]) and in the assay with MRL/lpr mice [2] (setting [8]) were 76.8% and 56.4%, respectively. The skin lesion score result in the assay on MRL/lpr mice [3] (30 mg/kg po qd) and with MRL/lpr mice [3] (100 mg/kg po qd) was “significantly reduced” in each case. The “lymphadenopathy score (0 to 6)” value came out at 2.7±0.4 in the assay with MRL/lpr mice [4] (30 mg/kg po qd) and 1.6±0.4 in the assay with MRL/lpr mice [4] (100 mg/kg po qd). Moreover, in the assay on MRL/lpr mice [5] (100 mg/kg po qd), the “individual and total lupus nephritis pathological scores, significance” value is reported as “Statistical significance was achieved”. Further, the “pathological score (glomerulonephritis, interstitial nephritis, vasculitis)” value with MRL/lpr mice [5] (30 and 100 mg/kg po qd) is “dose-dependently reduced”. For the same compound, the “number of lymphocytes in PBMC (total, T, CD4+ T, CD8+ T, double-negative T, B, activated B, plasmablasts, plasma cells, CD138+ cells)” value in the assay on MRL/lpr mice [6] (week 18, PBMC (FIG. 6)) is on record as “significantly reduced”. Further, the “number of pro-inflammatory CD4+ T cells and double-negative T cells in the kidney” value in the assay with MRL/lpr mice [6] (week 18, kidney (FIG. 8)) is recorded as “significantly reduced”. Further, the “number of lymphocytes in spleen (total, T, CD4+ T, CD8+ T, double-negative T, B, activated B, plasmablasts, plasma cells, CD138+ cells)” value in the assay with MRL/lpr mice [6] (week 18, spleen (FIG. 7)) was “significantly reduced”.

As usually defined, the Kd is the concentration at which binding is half-saturated. Read a low Kd as higher affinity. In turn, “Flu-BID: Fluorescein labeled BID (79-99) peptide, fluorescent probe in FP assay for Mcl-1” yielded a Kd with Mcl-1 of 6.9 ± 0.9 nM.
